Reference: a melting point compilation (Tetko et al.; mined from patent text by program, amines drawn as free bases though some values may be those of a salt)

First: Cc1ncc(-c2cccc(Nc3ncnc4c3CCOc3ccccc3-4)c2)n1C
Second: Cc1cc(C(=O)N2Cc3cccn3Cc3ccccc32)ccc1-c1ccncc1
The melting point of the first is higher: 235 to 237 °C for the first, 208 to 210 °C for the second.

Compared with S=c1nc2c(Cl)cccn2c(=S)n1-c1ncccc1Cl, S=C(NC(=S)c1c(Cl)cccc1Cl)Nc1ccc(Cl)c(Cl)c1 is higher in melting point: 120 to 122 °C for the first, 168 to 170 °C for the second.

Compared with CC(C)(c1ccc(Oc2cccc(N)c2)cc1)c1cccc(C(C)(C)c2ccc(Oc3cccc(N)c3)cc2)c1, COc1ccc(Nc2ccc(Nc3ccnc4cc(-c5cccc([N+](=O)[O-])c5)sc34)cc2)cc1 is higher in melting point: 94 to 96 °C for the first, 175 to 184 °C for the second.

First: O=C(O)C1CCCc2c(OCc3ccccc3)cccc21 (stereo not drawn)
Second: Nc1ccc(OCc2ccccc2)c2cnsc12
The melting point of the first is higher: 145 to 146 °C for the first, 126 to 128 °C for the second.

First: Cc1cc(-n2nc(C#N)cc2-c2ccc(S(C)(=O)=O)cc2)ccc1F
Second: COc1ccc2c(c1)C(=O)C(Cc1ccccc1)CN2S(=O)(=O)c1ccc(C)cc1 (stereo not drawn)
The melting point of the first is higher: 144 °C for the first, 101 to 103 °C for the second.

Compared with O=C1CCC(c2ccc(C(F)(F)F)cc2)=NN1, O=C1NCC=NN1c1cc(C(F)(F)F)cc(Cl)n1 is higher in melting point: 177 to 178 °C for the first, 197 to 198 °C for the second.

Compared with C=CCNc1nc(NCc2ccccc2)c2scc(C)c2n1, CCc1ccc(-c2nc3ccccc3[nH]2)nc1 is higher in melting point: 97 to 98 °C for the first, 172 to 173 °C for the second.

Compared with Fc1c(Br)ccc2c1OC(c1ccccc1)(c1ccccc1)O2, c1ccc(-c2ccc3c(c2)sc2c4ccc(-c5ccccc5)cc4sc32)cc1 is higher in melting point: 61.5 to 63 °C for the first, over 300 °C for the second.

First: CCOC(=O)N1Cc2sc3ncn(CCO)c(=O)c3c2C1
Second: CCOC(=NC(=O)NC)N1Cc2ccccc2-c2ccccc2C1
The melting point of the first is higher: 243 to 245 °C for the first, 137 to 139 °C for the second.

First: CCC(C(O)c1ccc(Cl)cc1)n1ncn(-c2ccc(N3CCN(C(=O)NC)CC3)cc2)c1=O (stereo not drawn)
Second: CC(C)C(c1ccccc1N1CCCCC1)C(C(N)=O)c1ccc(C(=O)O)cc1 (stereo not drawn)
The melting point of the first is higher: 221 °C for the first, 215 to 217 °C for the second.

First: CCC1=C(C)C(=C(C#N)C#N)C(C)=C(CC)O1
Second: Cc1cncc(C)c1-c1c(C)cc(C(C#N)C#N)cc1C
The melting point of the first is higher: 64 to 65 °C for the first, 58 to 60 °C for the second.

Compared with CCOCCn1cc2c(C3C(=O)Nc4ccc(Br)cc43)nc(NCCN3CCOCC3)nc2n1 (stereo not drawn), CCOCc1nc2c(N)nc3cc(Br)ccc3c2n1CC1COC(C)(C)O1 (stereo not drawn) is lower in melting point: 276 to 278 °C for the first, 176 to 177 °C for the second.

First: CN1CCC2(C)c3cc(O)cc(Br)c3N(C)C12 (stereo not drawn)
Second: CC1(C)CC(=O)C(c2c(Cl)cc([N+](=O)[O-])cc2Cl)C(=O)C1
The melting point of the first is lower: 175 to 177 °C for the first, 288 to 290 °C for the second.

Compared with CON=C(C(=O)OC)c1ccccc1ON=C(C)c1cccc(C)c1, COc1ccc(CCC(=O)c2cccc(O)c2)cc1OC is higher in melting point: 90 °C for the first, 132 to 134 °C for the second.

First: FC(F)(F)c1ccc(-c2cc(Oc3ccc4cccnc4c3)ncn2)c(Br)c1
Second: COc1ccc(-c2sc3cc(OC)ccc3c2C(=O)c2ccc(Br)cc2)cc1
The melting point of the first is higher: 185 to 187 °C for the first, 127 to 129 °C for the second.

Compared with COc1ccc(C(=O)N2C(C)Cc3ccccc3C2CNC(=O)c2cc(OC)c(OC)c(OC)c2)cc1 (stereo not drawn), O=C(NCCc1ccccc1)c1ccc(OC(F)(F)F)cc1 is lower in melting point: 213 to 215 °C for the first, 143 to 144 °C for the second.

Compared with O=C(CCCCCCOc1ccccc1)c1nnc(CO)o1, O=C(O)Cn1c(=O)oc2cc(-c3ccccc3)c(Cl)cc21 is higher in melting point: 83 to 85 °C for the first, 200 to 203 °C for the second.

Compared with CC(=O)C(=O)N[C@H](CO[N+](=O)[O-])c1ccccc1, CS(=O)(=O)OCCNc1ccc(Cl)cc1[N+](=O)[O-] is higher in melting point: 76 to 77 °C for the first, 108 to 109 °C for the second.

Compared with CC1(C)SC(=S)N(c2ccccn2)C1O (stereo not drawn), COC(=O)c1c(C)[nH]c(=S)n1Nc1cccc(Cl)c1 is higher in melting point: 80 °C for the first, 194 to 196 °C for the second.

CCCc1c(OCCCOc2cccc3c2CCCC3)ccc2c1OC(CCCC(O)CO)(CCCC(O)CO)CC2=O (stereo not drawn) and CCc1c(-c2ccc(OCc3ccccc3)cc2)c2c(COCCCCCCCN3CCCCC3)cc3c(OCc4ccccc4)ccc1n32 cannot be ordered by melting point: 87 to 88 °C for the first, 86 to 90 °C for the second.

First: CS(=O)(=O)c1nccn1CC(=O)Cl
Second: CCc1ccc(C(Cl)=NOS(C)(=O)=O)cc1
The melting point of the first is higher: 132 to 133 °C for the first, 50 to 52 °C for the second.

First: O=C1OC2CC3CC(C2)OC1O3
Second: O=C1NC(=O)C(c2ccc(Cl)o2)O1 (stereo not drawn)
The melting point of the first is higher: 140 to 143 °C for the first, 112 to 114 °C for the second.

First: FC(F)(F)c1cc(Cl)nc2[nH]ncc12
Second: O=[N+]([O-])C=C1NCCN1Cc1ccc(OCC(F)(F)F)nc1
The melting point of the first is lower: 112 °C for the first, 132 to 135 °C for the second.

First: O=C(CCC(=O)N1CCN(c2ccc(N3C[C@H](CNC(=S)C4CC4)OC3=O)cc2F)CC1)c1ccc(CN2CCOCC2)cc1
Second: CN(C)C(=O)Nc1ccc2c(c1)C(CN1CCC(c3ccc(F)cc3)CC1)CC2 (stereo not drawn)
The melting point of the first is higher: 173 to 174 °C for the first, 141 to 144 °C for the second.

First: O=Cc1ccc(CBr)c2ccccc12
Second: BrCc1ccc(-c2onc3ccccc23)cc1
The melting point of the first is lower: 115 to 116 °C for the first, 146 to 147 °C for the second.

Compared with CC(=NNC(=O)C1CCC1)c1ccncc1, COc1cccc2c1CC(CC(=O)O)C1(C2)OCCO1 (stereo not drawn) is lower in melting point: 139 °C for the first, 129 to 130 °C for the second.

Compared with COC(=O)c1nc(Br)c(F)c(N)c1Cl, COc1c(C(N)=O)nnn1Cc1ccccc1Cl is higher in melting point: 119 to 120 °C for the first, 185 to 187 °C for the second.

Compared with Cc1ccc(N)cc1C(=O)O, C#CCOC(=O)c1ccc(O)cc1O is lower in melting point: 142 to 144 °C for the first, 104 to 106 °C for the second.

COc1ccc(Oc2ccc(C(=O)CCC#N)cc2)cc1 and COC(=O)C1=Cc2cc(-c3ccc(OCCOC(C)C)cc3)ccc2NCC1 cannot be ordered by melting point: 88 °C for the first, 86 to 88 °C for the second.

First: O=C1C(Cl)=C(c2ccccc2)C(=O)N1Nc1ccccc1
Second: COc1ccc2c(=O)c(-c3ccccc3)c(SCc3ccccn3)oc2c1
The melting point of the first is lower: 144 to 146 °C for the first, 168 to 169 °C for the second.

First: N=c1[nH]c2ccc(Cl)cc2c2nc(-c3ccc(Br)o3)nn12
Second: CC(=O)CCN(CCN)c1nc2cc(Cl)ccc2o1
The melting point of the first is higher: 282 to 283 °C for the first, 126 °C for the second.

Compared with COc1cc(C)c(C=CC(C)=CC=CC(C)=CC(=O)n2ccnc2)c(C)c1C, COc1cc(C)c(C(O)c2c(O)ccc(Cl)c2C)c(OC)c1OC (stereo not drawn) is lower in melting point: 184 to 185 °C for the first, 140 to 142 °C for the second.

First: CC(C)(O)Cn1c(CON=C2CCCC2)nc2c(N)nc3cccnc3c21
Second: Cn1cnc(COc2nn3c(-c4ccccc4F)nnc3cc2C2CCC2)c1
The melting point of the first is higher: 195 to 197 °C for the first, 176 °C for the second.

First: Nc1sc2c(c1C(=O)c1ccc(Cl)cc1)CCN(C(=O)Nc1ccccc1)C2
Second: CC(CN1CC=C(c2ccc(Cl)cc2)CC1)C(O)c1ccccc1 (stereo not drawn)
The melting point of the first is higher: 216 to 217 °C for the first, 103 to 105 °C for the second.

First: CCON=C(CC)C1=C(O)CC(c2cccc3sccc23)CC1=O (stereo not drawn)
Second: CSCc1cn(C)c2c(Cl)cccc2c1=O
The melting point of the first is lower: 76 °C for the first, 146 to 148 °C for the second.

First: CCCC12CCC(=O)C=C1c1c(cc(OCC3=NCCN3)c(Cl)c1Cl)C2 (stereo not drawn)
Second: CCCn1c(=O)c2[nH]c(C(C)Cc3ccncc3)nc2n(CCC)c1=O (stereo not drawn)
The melting point of the first is lower: 152 to 154 °C for the first, 215 to 217 °C for the second.

First: COc1ccc2c(c1OC(C)=O)NC(OC)C1CCCN1C2=O (stereo not drawn)
Second: Cc1c(N2C[C@@H]3[C@@H](O)CCN3C2=O)ccc(C#N)c1Cl
The melting point of the first is lower: 143 to 145 °C for the first, 148 to 149 °C for the second.

First: CNc1nc(Nc2ccc(CCNC(=O)OC(C)(C)C)cc2)ncc1[N+](=O)[O-]
Second: COCOc1ccccc1-c1cc(-c2cc([N+](=O)[O-])ccc2Cl)c(C#N)c(NC(=O)c2cccs2)n1
The melting point of the first is lower: 70 to 71 °C for the first, 208 to 209 °C for the second.

First: c1ccc(CN2CCOC(CN3c4ccccc4CCc4ccccc43)C2)cc1 (stereo not drawn)
Second: CC(=O)n1c(=O)n(CCCN2CCN(C(c3ccccc3)c3ccccc3)CC2)c2ccccc21
The melting point of the first is higher: 139 to 140 °C for the first, 124 °C for the second.

First: Nc1ccc(-n2ccn(CCCC3CCCCC3)c2=O)cc1
Second: CC(C)N(CCC(C(N)=O)(c1ccccc1)C1CCCCN1)C(C)C (stereo not drawn)
The melting point of the first is lower: 83 to 85 °C for the first, 107 to 108 °C for the second.

First: Cc1oc(-c2ccc(-c3ccc(-c4nc(CC(=O)OCc5ccccc5)c(C)o4)cc3)cc2)nc1CC(=O)OCc1ccccc1
Second: CC(C)c1cccc(C(C)C)c1NC(=O)C(Cc1ccccc1)NC(=O)NCc1ccccc1 (stereo not drawn)
The melting point of the first is lower: 162 to 168 °C for the first, 240 to 241 °C for the second.

First: [N-]=[N+]=NCC1CN(c2ccc(SC(c3ccccc3)(c3ccccc3)c3ccccc3)c(F)c2)C(=O)O1 (stereo not drawn)
Second: ClCSc1n[nH]c(C(c2ccccc2)(c2ccccc2)c2ccccc2)n1
The melting point of the first is lower: 77 to 79 °C for the first, 121 to 122 °C for the second.

Compared with Brc1ccc(Br)c2nonc12, O=S1(=O)c2ccccc2Nc2nccnc21 is higher in melting point: 88 to 92 °C for the first, 316 to 318 °C for the second.

First: CNN1c2c(cc(Oc3ccc(F)cc3F)c(=O)n2NC)C=NC1SCc1ccccc1 (stereo not drawn)
Second: CCN1C(=O)C(=CC=C2C=C(c3ccc(OC)cc3)C=C3N2c2ccccc2C3(C)C)SC1=S
The melting point of the first is lower: 80.5 to 89.9 °C for the first, 210 to 211 °C for the second.

First: CC(=O)C(C)(C)Cc1cc(C(C)(C)C)c(O)c(C(C)(C)C)c1
Second: CC(=O)N[C@@H](CSC(=O)C(C)(C)C)C(=O)NCCSC(=O)C(C)(C)C
The melting point of the first is lower: 75 °C for the first, 109 to 111 °C for the second.

Going from Cc1ccc(C2CCN(CCCCNC(=O)c3ccc(-c4ccc(C#N)cc4)cc3)CC2)c(O)c1 to CC(C)CCC(=O)N[C@H]1CC[C@H](CCN2CCC(c3cccc4c3CCO4)CC2)CC1, the melting point rises from 184 °C to 188 °C.

First: CC(C)c1ccc(N(C)C)c(C(C)C)c1NC(=O)CN1CCN(CCSc2nc3ccccc3o2)CC1
Second: CCCNC(=O)C1(CCC)c2ccccc2Sc2ccccc21
The melting point of the first is higher: 159 to 161 °C for the first, 132 to 133 °C for the second.

First: Nc1cc(Sc2cccc3cnccc23)c(F)cc1[N+](=O)[O-]
Second: Nc1ncccc1OCc1ccccc1F
The melting point of the first is higher: 217 to 220 °C for the first, 85 to 86 °C for the second.

First: Cc1oc2nc(C(=O)O)nc(OCCN(C)C)c2c1C
Second: C=CCN(CC=C)c1nc(NC(=O)Cc2ccsc2)n2oc(=O)nc2n1
The melting point of the first is higher: 179 to 180 °C for the first, 159 to 161 °C for the second.

First: O=C(O)C1(c2ccc(C#Cc3ccccc3)cc2)CC1
Second: CC(=O)NC1=NN(c2ccc(F)cc2)C(C)C1 (stereo not drawn)
The melting point of the first is higher: 214 to 218 °C for the first, 136 to 138 °C for the second.

First: CCC1COC(=NO)C(=O)N1C (stereo not drawn)
Second: CCCCN(CCCC)c1nc(-c2ccc(C(C)(C)C)cc2)cs1
The melting point of the first is higher: 168 to 170 °C for the first, 48.5 to 49.5 °C for the second.

With COc1ccc(Cc2ccc3[nH]c(=S)[nH]c3c2)c(O)c1 the melting point was 248 to 250 °C.
